Data set [1] can be described thus: Stability in acetate buffer pH 5.0 at room temperature via HPLC (UV). The format is physicochemical. In short, it runs like this:
(§1)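 Progesterone prodrugs dissolved at 1 mg/mL in PBS (pH 7.03) or 10 mM acetate buffer (pH 5.0), kept at RT and reinjected over time, HPLC-UV AUC at 254 nm. Percent parent remaining; k from ln(%remaining) vs time, pseudo-first-order t1/2 = 0.693/k; duplicates averaged.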

A short description of data set [2]: Stability in PBS at room temperature via HPLC (UV). The note with it: phosphate-buffered saline (DPBS). The format is physicochemical. In short, it runs like this:
as §1

Data set [3] in a line: PBS stability assay at 37 °C via LC-MS/MS. The format is physicochemical. The note with it: 37 °C; for half-life at 3 µM: pH 7.03, PBS.
Experimental: (§10) To address this, prodrug stability was further evaluated in human plasma at 37 °C using liquid chromatography–tandem mass spectrometry (LC-MS/MS). For direct comparison, a parallel screen was conducted in PBS under identical conditions (Table ). To prevent premature degradation prior to LC-MS/MS analysis, acetonitrile containing formic acid was used as a quenching solution to acidify and stabilize the prodrugs in vials. […] This limitation in detection, along with the need for a more uniform and broadly applicable assessment across all compounds, prompted us to monitor the formation of the parent oxime as an alternative readout.
(§11) Stability experiments in human plasma and PBS were performed via liquid chromatography-tandem mass spectrometry (LC-MS/MS) to determine and compare rate of cleavage of progesterone prodrugs as well as selected allopregnanolone prodrugs (3 µM) when incubated at 37 °C. All experiments were performed in duplicate and results are presented as the average of two experimental replicates.
Data set [4] in a line: Plasma stability assay at 37 °C via LC-MS/MS, human plasma.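 On all read-outs here: prodrugs at 3 µM incubated in human plasma at 37 °C, intact prodrug quantified by LC-MS/MS over time, values are means of duplicate runs.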 The format is in vitro ADME. The note with it: for half-life at 3 µM: human, plasma.
Experimental: as §10, §11
Data set [5] can be described thus: Plasma stability assay via LC-MS/MS, rat plasma. The format is in vitro ADME. The note with it: read-out: t1/2 in rat plasma (Table S19) (converted). As to the method: (§2) Building on our observation that rotamer control in the steric series can be modulated by enzymatic stabilization or activation, we next evaluated whether this effect was species dependent. To investigate this, we performed comparative stability studies by incubating select prodrugs (20a, 20b, 20l and 20t; Figure ) in mouse and rat plasma – two of the most commonly used preclinical species in drug development. This approach allowed us to assess the potential influence of species-specific enzymes on rotamer equilibria and, by extension, prodrug activation rates. The self-immolation profiles for the sterically tuned linker series (20a–b) reveal discernible, species-dependent differences prodrug stability. […] While the precise biochemical drivers remain unclear, this observation warrants further investigation beyond the scope of this work.
(§3) 1.2 Stability in Plasma and PBS via LCMS
(§4) Procaine (positive control) was purchased from Sigma-Aldrich. HPLC grade MeCN, MeOH, H2O, and FA were purchased from Fischer Scientific. Human plasma (cat. No. […]- […]
(§5) 0102242) were obtained from BIOIVT. DPBS 1X (no calcium, no magnesium, pH = 7.03) was purchased from Thermo Fischer Scientific. Stock solutions were prepared in 100% DMSO, and suitable dilutions of target analytes were prepared in 0.1% FA /MeCN for method development.
(§6) For PBS assay Gibco® Dulbecco’s phosphate-buffered saline (DPBS 1X, no calcium, no magnesium, pH = 7.03) was utilized. All experiments were performed in duplicate and results are presented as the average of two experimental replicates.
(§7) Procedure for Plasma Stability Assay
(§8) Test compounds and positive control (i.e. procaine) were dissolved in DMSO to make a 10 mM stock solution and subsequently diluted to 500 μM in 50% MeCN and PBS. This intermediate stock solution was prepared and added immediately prior to the start of each test compound experiment. Plasma was thawed at ambient temperature and aliquoted (663.0 μL) into 1.5 mL Eppendorf tubes. Plasma was incubated at 37 °C for 10 minutes in an incubator shaker at 150 rpm, and the reactions were initiated by addition of the test compound or positive control (4.0 µL, 3 μM). The spiked plasma samples were incubated at 37 °C. For designated time points, 75 µL aliquots were removed from the incubation mixture and immediately quenched in 150 µL of MeCN/0.1%FA with internal standard (ISTD, 2 µM d 5-7-ethoxy coumarin). […] The supernatant was transferred to an LC-MS vial and analyzed by LC/MS-MS. […]
(§9) LC–MS/MS analysis was performed using an Agilent 1260 Infinity II HPLC, coupled with an Agilent G6460 triple quadrupole mass spectrometer (Agilent Technologies, USA). All the data were acquired employing Agilent 6460 Quantitative Analysis data processing software. […]

The nature of data set [6]: Plasma stability assay via LC-MS/MS, mouse plasma. The format is in vitro ADME. The note with it: read-out: t1/2 in mouse plasma (Table S20) (converted). The method, then:
as §2, §3, §4, §5, §6, §7, §8, §9

Each structure is given as a SMILES string.

For orientation: fraction remaining means what is left of the initial amount, in per cent. In the case of `CNCCN(C)C(=O)O/N=C(\C)[C@H]1CC[C@H]2[C@@H]3CCC4=CC(=O)CC[C@]4(C)[C@H]3CC[C@]12C` [20a], the half-life at 1 mg/mL in data set [1] (pH 5, acetate buffer pH 5.0, RT, 1 mg/mL, HPLC 254 nm, read-out: t1/2 in acetate buffer at RT (Tables S5-S8) (converted)) is above 168 h; in data set [1] (pH 5, acetate buffer pH 5.0, rt, HPLC (UV), read-out: Half-life (t½) pH 5.0 rt (converted)) it was above 168 h; in data set [1] (pH 5, acetate buffer pH 5.0, rt, read-out: t½: pH 5.0, rt (Table S23) (converted)), above 168 h; in data set [2] (pH 7.03, DPBS pH 7.03, RT, 1 mg/mL, HPLC 254 nm, read-out: t1/2 in PBS buffer at RT (Tables S1-S4) (converted)) it was 46.9 ± 0.77 h; in data set [2] (pH 7.03, PBS, rt, HPLC (UV), read-out: Half-life (t½) PBS rt (converted)) it was 46.9 h; in data set [2] (pH 7.03, PBS, rt, read-out: t½: PBS, rt (Table S23) (converted)), 46.9 h. The “PBS, 37 °C %rem. at 2h (Table S23)” value in data set [3] (PBS, 2 h) stood at 77%. For the same compound, the half-life at 3 µM in data set [3] (phosphate-buffered saline (DPBS), 3 µM, LC-MS/MS, read-out: t1/2 in PBS at 37 °C (Tables S14-S17) (converted)) was 8.07 h; in data set [3] (phosphate-buffered saline (DPBS), LC-MS/MS, read-out: Half-life (t½) PBS 37°C (converted)), 8.07 h; in data set [3] (phosphate-buffered saline (DPBS), read-out: PBS, 37 °C t½ (Table S23) (converted)), 8.07 h; in data set [3] (phosphate-buffered saline (DPBS), read-out: t1/2 (h) PBS, 37 °C (Tables S25, S26) (converted)) it was 8.07 h; in data set [4] (3 µM, LC-MS/MS, read-out: t1/2 in human plasma at 37 °C (Tables S10-S13, S18) (converted)), 3.14 h; in data set [4] (LC-MS/MS, read-out: Half-life (t½) Plasma 37°C (converted)), 2.49 h. Also, the half-life at 3 µM in data set [4] (read-out: Plasma, 37 °C t½ (Table S23) (converted)) was 2.45 h; in data set [5] it was 3.88 h; in data set [6], 4.7 h. Besides, the amount remaining at 2 h, 3 µM in data set [3] (phosphate-buffered saline (DPBS), pH 7.03, PBS, 2 h, read-out: % Remaining @ 2h, PBS, 37 °C (Tables S25, S26)) was determined as 77%. The “t1/2 in human plasma at 37 °C (Tables S10-S13, S18)” value in data set [4] (3 µM, LC-MS/MS) amounted to 2.45 h. Also, in data set [4] (2 h), the “Plasma, 37 °C %rem. at 2h (Table S23)” value is 73%.

These data come from article PMC12516379, “Rotamer-Controlled Self-Immolative Linkers Enable Tunable Release of Neurosteroid Oxime Prodrugs” (ACS Medicinal Chemistry Letters, 2025).
